Like-named read-outs stand apart in the source and are kept apart here.
Tests used:
[1] = molecular target: Thermosynechococcus vulcanus NIES-2134 protoporphyrinogen IX oxidase CyPPO18 (SEQ ID NO: 3) variant L327T (MBP fusion) (Thermosynechococcus vestitus, UniProt Q8DLV2, L327T); assay: PPO enzyme inhibition assay (IC50 for herbicides), CyPPO18 L327T fused to MBP; type: biochemical; details: 50 μM protoporphyrinogen IX, pH 7.5, room temperature, 30 min
[2] = molecular target: Thermosynechococcus vulcanus NIES-2134 protoporphyrinogen IX oxidase CyPPO18, wild type, SEQ ID NO: 3 (MBP fusion) (Thermosynechococcus vestitus, UniProt Q8DLV2); type: biochemical; details: CyPPO18 WT; 50 μM protoporphyrinogen IX, pH 7.5, room temperature, 30 min
Sequence of Thermosynechococcus vulcanus NIES-2134 protoporphyrinogen IX oxidase CyPPO18, wild type, SEQ ID NO: 3 (MBP fusion) (Q8DLV2 entry or part of it): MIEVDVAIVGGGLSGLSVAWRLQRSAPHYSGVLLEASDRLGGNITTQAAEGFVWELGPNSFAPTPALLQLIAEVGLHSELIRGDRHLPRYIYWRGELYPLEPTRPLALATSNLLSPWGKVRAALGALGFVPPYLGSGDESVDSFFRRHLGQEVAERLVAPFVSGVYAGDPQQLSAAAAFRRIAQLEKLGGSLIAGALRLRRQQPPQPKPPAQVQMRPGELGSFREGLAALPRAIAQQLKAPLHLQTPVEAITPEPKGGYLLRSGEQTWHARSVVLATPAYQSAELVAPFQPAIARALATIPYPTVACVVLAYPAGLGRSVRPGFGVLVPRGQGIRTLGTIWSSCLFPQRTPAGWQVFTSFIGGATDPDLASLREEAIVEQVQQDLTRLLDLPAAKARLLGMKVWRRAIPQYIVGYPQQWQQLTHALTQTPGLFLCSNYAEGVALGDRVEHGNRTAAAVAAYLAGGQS

[3] = tested on: PPO-deficient BT3 E. coli (ΔPPO) transformed with CyPPO18 variant A167L+F360I (Thermosynechococcus vulcanus NIES-2134, SEQ ID NO: 3); assay: Herbicide tolerance test in E. coli, CyPPO18 A167L+F360I; type: cell-based; details: LB agar, 0 to 2,000 μM herbicide, 37° C., 16-20 hours
Source text: (§1) To enhance the PPO-inhibiting herbicide resistance of CyPPO19 and CyPPO18, PPO variant genes of the above example 2 were constructed. They were transformed to BT3 (ΔPPO) strain which is deficient of PPO activity and cultured in LB media with PPO-inhibiting herbicide, thereby examining whether growth of transformed BT3 was not inhibited.
(§2) BT3 competent cells were transformed with the pET303-CyPPO19 (wild type), pET303-CyPPO18 (wild type) plasmids, and those with a mutation(s) constructed (refer to example 2) via heat shock method, and were cultured in LB agar media containing ampicillin.
(§3) Single colony transformed with each CyPPO gene was cultured in 3 mL of LB broth (LPSS) containing ampicillin for more than 12 hours, and then was subcultured in LB broth until absorbance (OD600) reached 0.5 to 1. Then, it was diluted with LB broth to OD600=0.5. Again, the diluted solution was serially diluted 4 times by a factor of one tenth. […]
(§4) Then, 10 μL of each diluted solution of E. coli was dropped on the plate and cultured at 37° C. under dark for 16-20 hours. PPO-inhibiting herbicide resistance was evaluated with the extent of E. coli growth containing each gene was observed.
(§5) The extent of herbicide resistance was evaluated by the relative growth of variants to that of wild type, and listed in Tables 9 and 10 and FIGS. 3 to 32. […]

[4] = molecular target: Thermosynechococcus vulcanus NIES-2134 protoporphyrinogen IX oxidase CyPPO18 (SEQ ID NO: 3) variant V165C (MBP fusion) (Thermosynechococcus vestitus, UniProt Q8DLV2, V165C); type: biochemical; details: 50 μM protoporphyrinogen IX, pH 7.5, room temperature, 30 min
Sequence of Thermosynechococcus vulcanus NIES-2134 protoporphyrinogen IX oxidase CyPPO18 (SEQ ID NO: 3) variant V165C (MBP fusion) (Q8DLV2 entry or part of it V165C): as the sequence (Q8DLV2 entry or part of it) above, with V165C counted along it

[5] = molecular target: Thermosynechococcus elongatus PKUAC-SCTE542 protoporphyrinogen IX oxidase CyPPO19 (SEQ ID NO: 1) variant A167I (MBP fusion) (Thermosynechococcus sichuanensis, UniProt A0A7D6JSC1, A167I); assay: biochemical; details: 50 μM protoporphyrinogen IX, pH 7.5, room temperature, 30 min, 10,000 means equivalent to or higher
Sequence of Thermosynechococcus elongatus PKUAC-SCTE542 protoporphyrinogen IX oxidase CyPPO19 (SEQ ID NO: 1) variant A167I (MBP fusion) (A0A7D6JSC1 entry or part of it A167I): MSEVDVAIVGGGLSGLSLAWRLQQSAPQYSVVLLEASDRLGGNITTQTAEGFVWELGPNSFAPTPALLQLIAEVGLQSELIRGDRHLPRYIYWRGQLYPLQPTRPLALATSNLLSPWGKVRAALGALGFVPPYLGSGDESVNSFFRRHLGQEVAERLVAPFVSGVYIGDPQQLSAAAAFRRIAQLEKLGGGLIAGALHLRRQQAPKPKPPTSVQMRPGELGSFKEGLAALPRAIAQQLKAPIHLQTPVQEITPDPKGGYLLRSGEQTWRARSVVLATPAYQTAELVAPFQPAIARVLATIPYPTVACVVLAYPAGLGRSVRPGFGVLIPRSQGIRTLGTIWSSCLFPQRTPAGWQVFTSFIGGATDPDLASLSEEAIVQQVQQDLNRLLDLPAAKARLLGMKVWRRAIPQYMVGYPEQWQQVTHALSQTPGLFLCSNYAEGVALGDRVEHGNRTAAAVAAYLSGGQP

[6] = tested on: PPO-deficient BT3 E. coli (ΔPPO) transformed with CyPPO19 variant V165C+F360V (Thermosynechococcus elongatus PKUAC-SCTE542, SEQ ID NO: 1); assay: Herbicide tolerance test in E. coli, CyPPO19 V165C+F360V; type: cell-based; details: LB agar, 0 to 2,000 μM herbicide, 37° C., 16-20 hours
Source text: as §1, §2, §3, §4, §5

[7] = molecular target: Thermosynechococcus elongatus PKUAC-SCTE542 protoporphyrinogen IX oxidase CyPPO19 (SEQ ID NO: 1) variant A167C (MBP fusion) (Thermosynechococcus sichuanensis, UniProt A0A7D6JSC1, A167C); assay: biochemical
Sequence of Thermosynechococcus elongatus PKUAC-SCTE542 protoporphyrinogen IX oxidase CyPPO19 (SEQ ID NO: 1) variant A167C (MBP fusion) (A0A7D6JSC1 entry or part of it A167C): as the sequence (A0A7D6JSC1 entry or part of it A167I) above, with I167C counted along it

[8] = tested on: PPO-deficient BT3 E. coli (ΔPPO) transformed with CyPPO19 variant R89A+F360T (Thermosynechococcus elongatus PKUAC-SCTE542, SEQ ID NO: 1); assay: Herbicide tolerance test in E. coli, CyPPO19 R89A+F360T; type: cell-based; details: LB agar, 0 to 2,000 μM herbicide, 37° C., 16-20 hours
Source text: as §1, §2, §3, §4, §5

[9] = molecular target: Thermosynechococcus elongatus PKUAC-SCTE542 protoporphyrinogen IX oxidase CyPPO19 (SEQ ID NO: 1) variant R89A (MBP fusion) (Thermosynechococcus sichuanensis, UniProt A0A7D6JSC1, R89A); assay: biochemical
Sequence of Thermosynechococcus elongatus PKUAC-SCTE542 protoporphyrinogen IX oxidase CyPPO19 (SEQ ID NO: 1) variant R89A (MBP fusion) (A0A7D6JSC1 entry or part of it R89A): as the sequence (A0A7D6JSC1 entry or part of it A167I) above, with R89A, I167A counted along it

[10] = tested on: PPO-deficient BT3 E. coli (ΔPPO) transformed with CyPPO19 variant R89A+F360M (Thermosynechococcus elongatus PKUAC-SCTE542, SEQ ID NO: 1); assay: Herbicide tolerance test in E. coli, CyPPO19 R89A+F360M; type: cell-based; details: LB agar, 0 to 2,000 μM herbicide, 37° C., 16-20 hours
Source text: as §1, §2, §3, §4, §5

[11] = tested on: PPO-deficient BT3 E. coli (ΔPPO) transformed with CyPPO18 variant A167L+V305M+F360M (Thermosynechococcus vulcanus NIES-2134, SEQ ID NO: 3); type: cell-based; set-up: key to the marks not given beside the values; details: LB agar, 0 to 2,000 μM herbicide, 37° C., 16-20 hours
Source text: as §1, §2, §3, §4, §5

[12] = molecular target: Thermosynechococcus elongatus PKUAC-SCTE542 protoporphyrinogen IX oxidase CyPPO19 (SEQ ID NO: 1) variant V165S (MBP fusion) (Thermosynechococcus sichuanensis, UniProt A0A7D6JSC1, V165S); assay: biochemical; details: 50 μM protoporphyrinogen IX, pH 7.5, room temperature, 30 min, 10,000 means equivalent to or higher
Sequence of Thermosynechococcus elongatus PKUAC-SCTE542 protoporphyrinogen IX oxidase CyPPO19 (SEQ ID NO: 1) variant V165S (MBP fusion) (A0A7D6JSC1 entry or part of it V165S): as the sequence (A0A7D6JSC1 entry or part of it A167I) above, with V165S, I167A counted along it

[13] = tested on: PPO-deficient BT3 E. coli (ΔPPO) transformed with CyPPO19 variant V165C+F360I (Thermosynechococcus elongatus PKUAC-SCTE542, SEQ ID NO: 1); assay: Herbicide tolerance test in E. coli, CyPPO19 V165C+F360I; type: cell-based; details: LB agar, 0 to 2,000 μM herbicide, 37° C., 16-20 hours
Source text: as §1, §2, §3, §4, §5

[14] = tested on: PPO-deficient BT3 E. coli (ΔPPO) transformed with CyPPO18 variant V305M+F360I (Thermosynechococcus vulcanus NIES-2134, SEQ ID NO: 3); assay: Herbicide tolerance test in E. coli, CyPPO18 V305M+F360I; type: cell-based; set-up: key to the marks not given beside the values; details: LB agar, 0 to 2,000 μM herbicide, 37° C., 16-20 hours
Source text: as §1, §2, §3, §4, §5

[15] = tested on: PPO-deficient BT3 E. coli (ΔPPO) transformed with CyPPO19 variant R89A+F360L (Thermosynechococcus elongatus PKUAC-SCTE542, SEQ ID NO: 1); assay: Herbicide tolerance test in E. coli, CyPPO19 R89A+F360L; type: cell-based; details: LB agar, 0 to 2,000 μM herbicide, 37° C., 16-20 hours
Source text: as §1, §2, §3, §4, §5

Sequence of Thermosynechococcus vulcanus NIES-2134 protoporphyrinogen IX oxidase CyPPO18 (SEQ ID NO: 3) variant L327T (MBP fusion) (Q8DLV2 entry or part of it L327T): as the sequence (Q8DLV2 entry or part of it) above, with L327T counted along it

SMILES	IC50 [1] [nM]	IC50 [2] [nM]	tolerance level (relative growth of variant to wild type) [3]	IC50 [4] [nM]	IC50 ([5]; read-out: IC50) [nM]	tolerance level (relative growth of variant to wild type) [6]	IC50 [7] [nM]	tolerance level (relative growth of variant to wild type) [8]	IC50 [9] [nM]	tolerance level (relative growth of variant to wild type) [10]	tolerance level (relative growth of variant to wild type) [11]	IC50 ([12]; read-out: IC50) [nM]	tolerance level (relative growth of variant to wild type) [13]	tolerance level (relative growth of variant to wild type) [14]	tolerance level (relative growth of variant to wild type) [15]	IC50 [5] [nM]	IC50 ([7]; CyPPO19 A167C, 50 μM protoporphyrinogen IX, pH 7.5, room temperature, 30 min) [nM]	IC50 ([9]; CyPPO19 R89A, 50 μM protoporphyrinogen IX, pH 7.5, room temperature, 30 min) [nM]	IC50 [12] [nM]
CCOc1cc(Oc2ccc(C(F)(F)F)cc2Cl)ccc1[N+](=O)[O-] [Oxyfluorfen]	3600	103	+	502	1330	++	649	+	602	+	++	1670	+	++	+				
Cc1nn(-c2cc(CC(Cl)C(=O)O)c(Cl)cc2F)c(=O)n1C(F)F (stereo not drawn) [Carfentrazone]	723	566	++	1220		+		+		+	++		+	++	+	≥ 10000	3530	857	≥ 10000
